pEC50, pIC50: −log10 of the molar value. Values after ≈ are worked out from the molar mass of the structure shown. One block for each compound: values may come before it.
What was measured:
[1] = tested on: T98G; assay: Cytotoxicity activity against human T98G cells assessed as reduction in cell growth measured for 48 hrs by MTS reagent based assay; assay type: functional
[2] = Cytotoxicity against HEK293T cells assessed as reduction in cell viability incubated for 72 hrs by MTS assay; assay type: toxicity, cell-based, HEK-293T; details: human
[3] = tested on: U-118-MG; assay: Antiproliferative activity against human U-118-MG cells assessed as reduction in cell viability incubated for 72 hrs by MTT assay; assay type: functional, cell-based
[4] = tested on: U-87 MG; assay: Antiproliferative activity against human U-87 MG cells assessed as reduction in cell viability incubated for 72 hrs by MTT assay; assay type: functional, cell-based, U-87MG ATCC
[5] = tested on: T98G; assay: Inhibition of colony formation in human T98G cells assessed as reduction in number of cell clone measured after 14 days by crystal violet staining based microscopic analysis; assay type: functional; details: 336 h
[6] = tested on: T98G; assay: Antiproliferative activity against human T98G cells assessed as reduction in cell viability incubated for 72 hrs by WST-8 reagent based assay; assay type: functional
[7] = tested on: U-251; assay: Antiproliferative activity against human U-251MG cells assessed as reduction in cell viability incubated for 72 hrs by MTT assay; assay type: functional, cell-based; details: U-251, 72 h
[8] = tested on: U-87 MG; assay: Antiproliferative activity against human U-87 MG cells assessed as reduction in cell viability incubated for 72 hrs by WST-8 reagent based assay; assay type: functional, U-87MG ATCC
[9] = Inhibition of colony formation in human U-251MG cells assessed as reduction in number of cell clone measured after 14 days by crystal violet staining based microscopic analysis; assay type: functional; details: 336 h
[10] = tested on: T98G; assay: Anticancer activity against human T98G cells assessed as reduction in cell viability; assay type: functional, cell-based
[11] = tested on: U-87 MG; assay: Cytotoxicity against human U-87 MG cells assessed as reduction in cell growth incubated for 48 hrs by MTT assay; assay type: functional, cell-based, U-87MG ATCC
[12] = tested on: U-251; assay: Cytotoxicity against human U-251MG cells assessed as reduction in cell growth incubated for 24 hrs by MTT assay; assay type: functional, cell-based; details: U-251, 24 h
[13] = tested on: CCF-STTG1; assay: Cytotoxicity against human CCF-STTG1 cells assessed as reduction in cell growth incubated for 24 hrs by MTT assay; assay type: functional, cell-based; details: CCF-STTG1, 24 h
[14] = Cytotoxicity against human SHG-44 cells assessed as reduction in cell growth incubated for 24 hrs by MTT assay; assay type: functional, cell-based; details: SHG-44, 24 h
[15] = Cytotoxicity against human CHG-5 cells assessed as reduction in cell growth incubated for 24 hrs by MTT assay; assay type: functional, cell-based; details: CHG-5, 24 h
[16] = tested on: U-87 MG; assay: Antiproliferative activity against human U-87-MG cells; assay type: functional, cell-based, U-87MG ATCC
[17] = tested on: U-251; assay: Antiproliferative activity against human U-251MG cells assessed as reduction in cell viability incubated for 72 hrs by SRB assay; assay type: functional, cell-based; details: U-251, 72 h
[18] = tested on: C6; assay: Antiproliferative activity against rat C6 cells assessed as reduction in cell growth incubated for 48 hrs by MTT assay; assay type: functional, cell-based; details: C6, 48 h
[19] = tested on: U-251; assay: Antiproliferative activity against human U-251MG cells assessed as reduction in cell growth incubated for 72 hrs by MTT assay; assay type: functional, cell-based; details: U-251, 72 h
[20] = tested on: C6; assay: Antiproliferative activity against rat C6 cells assessed as reduction in cell growth incubated for 72 hrs by MTT assay; assay type: functional, cell-based; details: C6, 72 h
[21] = tested on: U-251; assay: Antiproliferative activity against human U-251MG cells assessed as reduction in cell growth incubated for 48 hrs by MTT assay; assay type: functional, cell-based; details: U-251, 48 h
[22] = tested on: U-251; assay: Antiproliferative activity against human U-251MG cells assessed as reduction in cell growth incubated for 24 hrs by MTT assay; assay type: functional, cell-based; details: U-251, 24 h
[23] = tested on: C6; assay: Antiproliferative activity against rat C6 cells assessed as reduction in cell growth incubated for 24 hrs by MTT assay; assay type: functional
[24] = tested on: RPMI 8402; assay: Cytotoxicity against human RPMI 8402 cells assessed as reduction in cell viability incubated for 4 days by MTT assay; assay type: functional, cell-based; details: RPMI 8402, 96 h
[25] = tested on: HaCaT; assay: Growth inhibition of human HaCaT cells measured after 48 hrs by sulforhodamine B assay; assay type: functional
[26] = tested on: SF-268; assay: Cytotoxicity against human SF-268 cells assessed as reduction in cell viability incubated for 4 days by MTT assay; assay type: functional; details: SF-268, 96 h, time 4 day
[27] = tested on: U-251; assay: Growth inhibition of human U-251 cells measured after 48 hrs by sulforhodamine B assay; assay type: functional
[28] = tested on: U-87 MG; assay: Growth inhibition of human U-87 MG cells measured after 72 hrs by MTT assay; assay type: functional, U-87MG ATCC
[29] = Growth inhibition of human U373 MG cells measured after 72 hrs by MTT assay; assay type: functional, U-373MG ATCC
[30] = tested on: Hs68; assay: Growth inhibition of human Hs68 cells measured after 72 hrs by MTT assay; assay type: functional
[31] = tested on: T98G; assay: Growth inhibition of human T98G cells measured after 72 hrs by MTT assay; assay type: functional
[32] = tested on: SF-295; assay: Cytotoxicity against human SF-295 cells assessed as reduction in cell growth incubated for 96 hrs by MTT assay; assay type: functional, cell-based; details: SF-295, 96 h
[33] = tested on: SF-295; assay: Cytotoxicity against human SF-295 cells; assay type: functional, cell-based
[34] = tested on: T98G; assay: Antiproliferative activity against human T98G cells assessed as reduction in cell viability incubated for 96 hrs by MTT assay; assay type: functional, cell-based
[35] = tested on: T98G; assay: Induction of apoptosis in human T98G cells at 10 ug/ml relative to control; assay type: functional; details: dose 10 µg/ml
[36] = Inhibition of rat C6 cells at 1 micromol/L measured for 24 hrs relative to control; assay type: functional; details: C6, 24 h, dose 1 µmol/L
[37] = Inhibition of rat C6 cells at 2 micromol/L measured for 24 hrs relative to control; assay type: functional; details: C6, 24 h, dose 2 µmol/L

Structure (SMILES): C=CC(C)(C)[C@@]12C[C@H]3C(=O)N[C@@H](Cc4ccccc4)C(=O)N3[C@@H]1N(C(C)=O)c1ccccc12
- IC50 [1]: 20 µg/mL (≈ 45.1 µM)

Structure (SMILES): COc1cc2c(cc1OC)[C@H](Cc1cc(O)c(OC)c(Oc3ccc(C=O)cc3)c1)N(C)CC2
- IC50 at 72 h [2]: 20 µg/mL (≈ 43.1 µM)

- pIC50 [4]: 3.87
- pEC50 [5]: 3.37
- pIC50 [7]: < 3.49
- pEC50 [8]: 4.38
- pEC50 [9]: 4.64
Structure (SMILES): Cn1nnc2c(C(N)=O)ncn2c1=O [TEMOZOLOMIDE]
- pIC50 [3]: < 3.49
- IC50 at 72 h [2]: > 50 µg/mL
- pEC50 [6]: 3.41
- pEC50 [10]: 3.82

Structure (SMILES): COc1ncc(O)c2c(O)cccc12
- pIC50 [11]: 5.67

Structure (SMILES): COC(=O)N1CCc2cc3c(c4c2[C@@H]1Cc1ccc(OC)c(OC)c1-4)OCO3
- pIC50 [12]: 4.95
- pIC50 [13]: 5.04
- pIC50 [14]: 4.95
- pIC50 [15]: 5.01

Structure (SMILES): COc1cc2c(cc1OC)-c1c3c(cc4c1[C@H](C2)N(C)CC4)OCO3 [DICENTRINE]
- pIC50 [16]: 5.33

- pIC50 [17]: 4.58
Structure (SMILES): CC1=NC(C(=O)O)Cc2c1[nH]c1cc([C@H](c3c[nH]c4ccccc34)[C@@H](O)CO)[nH]c21 (stereo not given in full)

- pEC50 [19]: 4.04
- pEC50 [21]: 4.03
- pEC50 [22]: 3.95
Structure (SMILES): COc1ccc2c(c1OC)CN(C)c1c-2ccc2cc3c(cc12)OCO3 [DIHYDROCHELERYTHRINE]
- pEC50 [18]: 4.00
- pEC50 [20]: 4.03
- EC50 [23]: 121.4 µM

- pIC50 [17]: 4.44
Structure (SMILES): CC1=N[C@H](C(=O)O)CC2c3[nH]ccc3NC12 (stereo not given in full)

- GI50 [27]: 16.2 µM
Structure (SMILES): COc1cc2c(cc1OC)-c1cc3ccc(OC)c(OC)c3c[n+]1CC2 [PALMITINE]
- IC50 [24]: 10 µg/mL
- GI50 [25]: 122 µM
- GI50 [26]: 3 µg/mL

- GI50 [28]: 6 µM
Structure (SMILES): CO[C@@H]1C=C[C@]23c4cc5c(cc4[C@@H](O)N(C[C@H]2O)[C@@H]3C1)OCO5
- GI50 [29]: 7 µM
- GI50 [30]: 4 µM
- GI50 [31]: 14 µM

Structure (SMILES): O=C1c2ccc(Br)cc2-[n+]2ccc3c([nH]c4ccccc43)c21
- pIC50 [32]: 5.25
- pIC50 [33]: 5.41

Structure (SMILES): Oc1cc2cccc(O)c2cn1
- pIC50 [11]: 5.46

Structure (SMILES): COc1ccc2c(c1O)-c1c(O)c(OC)cc3c1[C@H](C2)[N+](C)(C)CC3 [MAGNOFLORINE]
- IC50 [34]: 112 µg/mL
- Activity [35]: 24.02%

Structure (SMILES): C[n+]1cc2c3c(ccc2c2ccc4cc5c(cc4c21)OCO5)OCO3
- inhibition at 1 µM [36]: 35%
- inhibition at 2 µM [37]: 82%

— ChEMBL document CHEMBL6115010, “Targeting glioma with heteroaromatic alkaloids: A review of potential therapeutics” (Bioorg Med Chem, 2025)
